The compounds below were run on Arabidopsis thaliana seed germination (assay: Arabidopsis seed germination assay (promotion of germination in the presence of (S)-ABA)). Settings: 30 ppm compound in the presence of 0.3 ppm (S)-ABA; scored on day 14.
Type: in vivo
Set-up: key to Rating: Arabidopsis seed germination promotion activity: −: Seeds germinated at approximately the same time as those treated with 0.3 ppm of (S)-ABA alone (i.e., treatment with the 2′-vinyl-(S)-ABA derivative showed no measurable effect in this assay configuration).; +: Seeds germinated 1 to 4 days earlier than those treated with 0.3 ppm of (S)-ABA alone.; ++: Seeds germinated 5 to 7 days earlier than those treated with 0.3 ppm of (S)-ABA alone.; +++: Seeds germinated 8 to 10 days earlier than those treated with 0.3 ppm of (S)-ABA alone
Protocol: To determine whether the (S)-ABA derivatives of the present invention were effective antagonists, germination assays were performed with the model plant Arabidopsis thaliana. If the compounds are found to be antagonists, they may be useful to counter any undesirable side effects of (S)-ABA.
Arabidopsis seed was sterilized by shaking for five minutes in 200 proof ethanol, followed by shaking for five minutes in a 10% bleach solution. The seeds were then washed five times in sterile, distilled, de-ionized water and suspended in 0.1% phytoagar. The tubes containing the seeds were wrapped in aluminum foil and stratified at 4° C. for two days.
All compounds were tested at a concentration of 30 ppm in the presence or absence of 0.3 ppm (S)-ABA, in 24-well plates. For each compound, a 1000 ppm stock solution was prepared in distilled, deionized water containing 5% DMSO. The stock test solution (15 μL) was added to each well, plus or minus 1.5 μL of 100 ppm (S)-ABA in 5% DMSO. Appropriate amounts of distilled, de-ionized water was added to equalize volumes, and 450 μL of ½×Murashige and Skoog media containing 1.2% Bactoagar was then added to each well (final DMSO concentration was 0.5%). When the media solidified, ten to 15 sterile stratified Arabidopsis seeds were distributed into each well using a repeat pipettor. The plates were sealed with surgical tape and placed in a growth chamber running diurnal cycles of 12 hours of light at 24° C. and 12 hours of darkness at 19° C. The plates were scanned on days 3 through 14, and scored on day 14. The (S)-2′-vinyl-substituted ABA derivatives were scored on ability to promote germination in the presence of (S)-ABA. The results are summarized below in “Table 1: Arabidopsis seed germination promotion activity of 2′-vinyl-(S)-ABA derivatives.”

SMILES | Rating: Arabidopsis seed germination promotion activity
COC(=O)/C=C(C)\C=C\[C@@]1(O)C(/C=C/c2cccc(C(F)(F)F)c2Cl)=CC(=O)CC1(C)C [Compound 13] | + (Seeds germinated 1 to 4 days earlier than those treated with 0.3 ppm of (S)-ABA alone.)
CC(=C/C(=O)O)/C=C/[C@@]1(O)C(/C=C/c2ccccc2C(F)(F)F)=CC(=O)CC1(C)C [Compound 25] | ++ (Seeds germinated 5 to 7 days earlier than those treated with 0.3 ppm of (S)-ABA alone.)
COC(=O)/C=C(C)\C=C\[C@@]1(O)C(/C=C/c2ccc(Cl)c(F)c2)CC(=O)CC1(C)C (stereo partly drawn) [Compound 9] | ++ (Seeds germinated 5 to 7 days earlier than those treated with 0.3 ppm of (S)-ABA alone.)
CC1=CC(=O)CC(C)(C)[C@@]1(O)/C=C/C(C)=C/C(=O)O [(S)-ABA, (S)-abscisic acid, reference compound] | −
COC(=O)/C=C(C)\C=C\[C@@]1(O)C(/C=C/c2ccc(OC)c(C#N)c2)=CC(=O)CC1(C)C [Compound 11] | −
CC(=C/C(=O)O)/C=C/[C@@]1(O)C(/C=C/c2ccc(F)c(Cl)c2)=CC(=O)CC1(C)C [Compound 8] | +++ (Seeds germinated 8 to 10 days earlier than those treated with 0.3 ppm of (S)-ABA alone.)
CC(=C/C(=O)O)/C=C/[C@@]1(O)C(/C=C/c2ccccn2)=CC(=O)CC1(C)C [Compound 36] | −
CC(=C/C(=O)O)/C=C/[C@@]1(O)C(/C=C/c2cc(C(F)(F)F)ccc2F)=CC(=O)CC1(C)C [Compound 27] | ++ (Seeds germinated 5 to 7 days earlier than those treated with 0.3 ppm of (S)-ABA alone.)
CC(=C/C(=O)O)/C=C/[C@@]1(O)C(/C=C/c2cccc(Cl)c2)=CC(=O)CC1(C)C [Compound 17] | −
COC(=O)/C=C(C)\C=C\[C@@]1(O)C(/C=C/c2ccc(Cl)c(C(F)(F)F)c2)=CC(=O)CC1(C)C [Compound 14] | ++ (Seeds germinated 5 to 7 days earlier than those treated with 0.3 ppm of (S)-ABA alone.)
CC(=C/C(=O)O)/C=C/[C@@]1(O)C(/C=C/c2cccc(C(F)(F)F)c2)=CC(=O)CC1(C)C [Compound 21] | + (Seeds germinated 1 to 4 days earlier than those treated with 0.3 ppm of (S)-ABA alone.)
CC(=C/C(=O)O)/C=C/[C@@]1(O)C(/C=C/c2cc(F)cc(C(F)(F)F)c2)=CC(=O)CC1(C)C [Compound 29] | ++ (Seeds germinated 5 to 7 days earlier than those treated with 0.3 ppm of (S)-ABA alone.)
CC(=C/C(=O)O)/C=C/[C@@]1(O)C(/C=C/c2ccc(F)cc2F)=CC(=O)CC1(C)C [Compound 22] | ++ (Seeds germinated 5 to 7 days earlier than those treated with 0.3 ppm of (S)-ABA alone.)
CC(=C/C(=O)O)/C=C/[C@@]1(O)C(/C=C/c2cc(C(F)(F)F)ccc2Cl)=CC(=O)CC1(C)C [Compound 1] | ++ (Seeds germinated 5 to 7 days earlier than those treated with 0.3 ppm of (S)-ABA alone.)
CC(=C/C(=O)O)/C=C/[C@@]1(O)C(/C=C/c2cc(Cl)cc(Cl)c2)=CC(=O)CC1(C)C [Compound 16] | ++ (Seeds germinated 5 to 7 days earlier than those treated with 0.3 ppm of (S)-ABA alone.)
CC(=C/C(=O)O)/C=C/[C@@]1(O)C(/C=C/c2ccc(Cl)cc2)=CC(=O)CC1(C)C [Compound 18] | +++ (Seeds germinated 8 to 10 days earlier than those treated with 0.3 ppm of (S)-ABA alone.)

SMILES | Rating: Arabidopsis seed germination promotion activity
COC(=O)/C=C(C)\C=C\[C@@]1(O)C(/C=C/c2ccccc2F)=CC(=O)CC1(C)C [Compound 10] | −
CC(=C/C(=O)O)/C=C/[C@@]1(O)C(/C=C/c2ccc(C(F)(F)F)cc2F)=CC(=O)CC1(C)C [Compound 30] | ++ (Seeds germinated 5 to 7 days earlier than those treated with 0.3 ppm of (S)-ABA alone.)
CC(=C/C(=O)O)/C=C/[C@@]1(O)C(/C=C/c2cc(F)cc(F)c2)=CC(=O)CC1(C)C [Compound 24] | ++ (Seeds germinated 5 to 7 days earlier than those treated with 0.3 ppm of (S)-ABA alone.)
CC(=C/C(=O)O)/C=C/[C@@]1(O)C(/C=C/c2cccc(C#N)c2)=CC(=O)CC1(C)C [Compound 32] | −
CC(=C/C(=O)O)/C=C/[C@@]1(O)C(/C=C/c2ccc(C)cc2)=CC(=O)CC1(C)C [Compound 4] | +++ (Seeds germinated 8 to 10 days earlier than those treated with 0.3 ppm of (S)-ABA alone.)
CC(=C/C(=O)O)/C=C/[C@@]1(O)C(/C=C/c2ccc(C#N)cc2)=CC(=O)CC1(C)C [Compound 3] | ++ (Seeds germinated 5 to 7 days earlier than those treated with 0.3 ppm of (S)-ABA alone.)
CC(=C/C(=O)O)/C=C/[C@@]1(O)C(/C=C/c2cccnc2)=CC(=O)CC1(C)C [Compound 37] | −
CC(=C/C(=O)O)/C=C/[C@@]1(O)C(/C=C/c2cncs2)=CC(=O)CC1(C)C [Compound 35] | −
CC(=C/C(=O)O)/C=C/[C@@]1(O)C(/C=C/c2ccc(C(F)(F)F)cc2)=CC(=O)CC1(C)C [Compound 26] | +++ (Seeds germinated 8 to 10 days earlier than those treated with 0.3 ppm of (S)-ABA alone.)
CC(=C/C(=O)O)/C=C/[C@@]1(O)C(/C=C/c2c(F)cccc2F)=CC(=O)CC1(C)C [Compound 6] | −
CC(=C/C(=O)O)/C=C/[C@@]1(O)C(/C=C/c2ccc(Cl)c(Cl)c2)=CC(=O)CC1(C)C [Compound 19] | ++ (Seeds germinated 5 to 7 days earlier than those treated with 0.3 ppm of (S)-ABA alone.)
COc1ccc(C(F)(F)F)cc1/C=C/C1=CC(=O)CC(C)(C)[C@@]1(O)/C=C/C(C)=C\C(=O)O [Compound 28] | ++ (Seeds germinated 5 to 7 days earlier than those treated with 0.3 ppm of (S)-ABA alone.)
CC(=C/C(=O)O)/C=C/[C@@]1(O)C(/C=C/c2nccs2)=CC(=O)CC1(C)C [Compound 34] | −
CC(=C/C(=O)O)/C=C/[C@@]1(O)C(/C=C/c2c(F)cccc2Cl)=CC(=O)CC1(C)C [Compound 7] | ++ (Seeds germinated 5 to 7 days earlier than those treated with 0.3 ppm of (S)-ABA alone.)
CC(=C/C(=O)O)/C=C/[C@@]1(O)C(/C=C/c2c(Cl)cccc2Cl)=CC(=O)CC1(C)C [Compound 5] | −
CC(=C/C(=O)O)/C=C/[C@@]1(O)C(/C=C/c2ccncc2)=CC(=O)CC1(C)C [Compound 38] | −

Same assay, conditions: seed germination assay, 30 ppm with 0.3 ppm (S)-ABA

SMILES | antagonist nature compared to (S)-ABA
CC(=C/C(=O)O)/C=C/[C@@]1(O)C(/C=C/c2ccc(F)c(Cl)c2)=CC(=O)CC1(C)C [Compound 8] | antagonists of (S)-ABA
CC(=C/C(=O)O)/C=C/[C@@]1(O)C(/C=C/c2ccc(Cl)cc2)=CC(=O)CC1(C)C [Compound 18] | antagonists of (S)-ABA
CC(=C/C(=O)O)/C=C/[C@@]1(O)C(/C=C/c2ccc(C)cc2)=CC(=O)CC1(C)C [Compound 4] | antagonists of (S)-ABA
CC(=C/C(=O)O)/C=C/[C@@]1(O)C(/C=C/c2ccc(C(F)(F)F)cc2)=CC(=O)CC1(C)C [Compound 26] | antagonists of (S)-ABA

Reference: patent publication US9447015B1, “(S)-2′-vinyl-abscisic acid derivatives” (Valent BioSciences Corporation, priority 2015, dated 2016)
